Experimental data as given in PubChem BioAssay AID2060500 (Molecular Pharmacology Branch, DTP, NCI, 2025).
pIC50: −log10 of the molar value.

System: 596521-263-R-J1-PDC complex spheroids, viability % of control
Experiment: Anticancer human tumor 596521-263-R-J1-PDC patient-derived soft tissue sarcoma cell line growth inhibition [GQUAD]
Conditions: for pIC50: curve of first compound; for viability, T/C: stronger effect = lower value; active = viability on the fitted dose curve at most 10% of control; inactive = the rest
Summary of the method: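 Tumor cells were grown as complex spheroids with HUVEC endothelial cells and mesenchymal stem cells as stroma. G-quadruplex stabilizers were combined with targeted agents over half-log dilutions from near the clinical Cmax, or from 10 microM.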

[1] = second compound 0.0316 µM, first compound 0.0316 µM
[2] = second compound 0.0316 µM, first compound 0.316 µM
[3] = second compound 0.1 µM, first compound 0.0316 µM
[4] = second compound 0.1 µM, first compound 0.316 µM
[5] = second compound 0.316 µM, first compound 0.0316 µM
[6] = second compound 0.316 µM, first compound 0.316 µM
[7] = second compound 1 µM, first compound 0.0316 µM
[8] = second compound 1 µM, first compound 0.316 µM
[9] = second compound 3.16 µM, first compound 0.0316 µM
[10] = second compound 3.16 µM, first compound 0.316 µM
[11] = second compound 10 µM, first compound 0.0316 µM
[12] = second compound 10 µM, first compound 0.316 µM
[13] = second compound 0.0316 µM, first compound 0.1 µM
[14] = second compound 0.0316 µM, first compound 1 µM
[15] = second compound 0.0316 µM, first compound 3.16 µM
[16] = second compound 0.0316 µM, first compound 10 µM
[17] = second compound 0.1 µM, first compound 0.1 µM
[18] = second compound 0.1 µM, first compound 1 µM
[19] = second compound 0.1 µM, first compound 3.16 µM
[20] = second compound 0.1 µM, first compound 10 µM
[21] = second compound 0.316 µM, first compound 0.1 µM
[22] = second compound 0.316 µM, first compound 1 µM
[23] = second compound 0.316 µM, first compound 3.16 µM
[24] = second compound 0.316 µM, first compound 10 µM
[25] = second compound 1 µM, first compound 0.1 µM
[26] = second compound 1 µM, first compound 1 µM
[27] = second compound 1 µM, first compound 3.16 µM
[28] = second compound 1 µM, first compound 10 µM
[29] = second compound 3.16 µM, first compound 0.1 µM
[30] = second compound 3.16 µM, first compound 1 µM
[31] = second compound 3.16 µM, first compound 3.16 µM
[32] = second compound 3.16 µM, first compound 10 µM
[33] = second compound 10 µM, first compound 0.1 µM
[34] = second compound 10 µM, first compound 1 µM
[35] = second compound 10 µM, first compound 3.16 µM
[36] = second compound 10 µM, first compound 10 µM
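Note: spheroids exposed to drugs for 7 days before viability reading.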
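Throughout, for viability, T/C: 100% = DMSO vehicle control viability.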

CC[C@@]1(O)C(=O)OCc2c1cc1n(c2=O)Cc2cc3c(CN(C)C)c(O)ccc3nc2-1 + Cc1cnc(CNC(=O)c2c(=O)c3ccc(N4CCCN(C)CC4)nc3n3c2sc2ccccc23)cn1
inactive: viability, T/C (second compound 0.0316 µM, first compound 0.000999 µM) 107% | viability, T/C (second compound 0.0316 µM, first compound 0.00316 µM) 102% | viability, T/C (second compound 0.0316 µM, first compound 0.00999 µM) 78.7% | viability, T/C [1] 66.5% | viability, T/C (second compound 0.0316 µM, first compound 0.0999 µM) 60.1% | viability, T/C [2] 60.1% | viability, T/C (second compound 0.1 µM, first compound 0.000999 µM) 88.9% | viability, T/C (second compound 0.1 µM, first compound 0.00316 µM) 85% | viability, T/C (second compound 0.1 µM, first compound 0.00999 µM) 76.5% | viability, T/C [3] 69.3% | viability, T/C (second compound 0.1 µM, first compound 0.0999 µM) 57.2% | viability, T/C [4] 50.9% | viability, T/C (second compound 0.316 µM, first compound 0.000999 µM) 90.1% | viability, T/C (second compound 0.316 µM, first compound 0.00316 µM) 86.7% | viability, T/C (second compound 0.316 µM, first compound 0.00999 µM) 78.3% | viability, T/C [5] 63% | viability, T/C (second compound 0.316 µM, first compound 0.0999 µM) 67.1% | viability, T/C [6] 65.7% | viability, T/C (second compound 1 µM, first compound 0.000999 µM) 70.8% | viability, T/C (second compound 1 µM, first compound 0.00316 µM) 60.2% | viability, T/C (second compound 1 µM, first compound 0.00999 µM) 60.4% | viability, T/C [7] 63.2% | viability, T/C (second compound 1 µM, first compound 0.0999 µM) 59.3% | viability, T/C [8] 55.8% | viability, T/C (second compound 3.16 µM, first compound 0.000999 µM) 54.3% | viability, T/C (second compound 3.16 µM, first compound 0.00316 µM) 60.7% | viability, T/C (second compound 3.16 µM, first compound 0.00999 µM) 51.5% | viability, T/C [9] 54.4% | viability, T/C (second compound 3.16 µM, first compound 0.0999 µM) 58% | viability, T/C [10] 56.2% | viability, T/C (second compound 10 µM, first compound 0.000999 µM) 46.5% | viability, T/C (second compound 10 µM, first compound 0.00316 µM) 47.1% | viability, T/C (second compound 10 µM, first compound 0.00999 µM) 49.7% | viability, T/C [11] 43.7% | viability, T/C (second compound 10 µM, first compound 0.0999 µM) 49.4% | viability, T/C [12] 49%
> 9.00: pIC50 (second compound 10 µM)
< 6.50: pIC50 (second compound 0.0316 µM) | pIC50 (second compound 0.1 µM) | pIC50 (second compound 0.316 µM) | pIC50 (second compound 1 µM) | pIC50 (second compound 3.16 µM)

O=C(c1cc(Cc2n[nH]c(=O)c3ccccc23)ccc1F)N1CCN(C(=O)C2CC2)CC1 + Cc1cnc(CNC(=O)c2c(=O)c3ccc(N4CCCN(C)CC4)nc3n3c2sc2ccccc23)cn1
> 7.50: pIC50 (second compound 3.16 µM) | pIC50 (second compound 10 µM)
inactive: viability, T/C [1] 92% | viability, T/C [13] 91% | viability, T/C [2] 96% | viability, T/C [14] 80.2% | viability, T/C [15] 81.4% | viability, T/C [16] 68.9% | viability, T/C [3] 86.3% | viability, T/C [17] 80.6% | viability, T/C [4] 82.8% | viability, T/C [18] 70.3% | viability, T/C [19] 71.4% | viability, T/C [20] 56.4% | viability, T/C [5] 71.8% | viability, T/C [21] 77.9% | viability, T/C [6] 73.4% | viability, T/C [22] 78.1% | viability, T/C [23] 73.3% | viability, T/C [24] 58.1% | viability, T/C [7] 68.2% | viability, T/C [25] 64.2% | viability, T/C [8] 59.4% | viability, T/C [26] 64.3% | viability, T/C [27] 60.9% | viability, T/C [28] 54.1% | viability, T/C [9] 47.9% | viability, T/C [29] 50.1% | viability, T/C [10] 52.2% | viability, T/C [30] 56.8% | viability, T/C [31] 52.3% | viability, T/C [32] 48.8% | viability, T/C [11] 46.1% | viability, T/C [33] 48.4% | viability, T/C [12] 47.4% | viability, T/C [34] 46.6% | viability, T/C [35] 50.9% | viability, T/C [36] 41.8%
< 5.00: pIC50 (second compound 0.0316 µM) | pIC50 (second compound 0.1 µM) | pIC50 (second compound 0.316 µM) | pIC50 (second compound 1 µM)

COc1cc(C2c3cc4c(cc3C(OC3OC5COC(C)OC5C(O)C3O)C3COC(=O)C23)OCO4)cc(OC)c1O (stereo not drawn) + Cc1cnc(CNC(=O)c2c(=O)c3ccc(N4CCCN(C)CC4)nc3n3c2sc2ccccc23)cn1
5.78: pIC50 (second compound 1 µM)
> 7.50: pIC50 (second compound 10 µM)
5.55: pIC50 (second compound 0.316 µM)
5.57: pIC50 (second compound 0.0316 µM)
inactive: viability, T/C [1] 99.8% | viability, T/C [13] 83.6% | viability, T/C [2] 77.8% | viability, T/C [14] 53.8% | viability, T/C [15] 50.7% | viability, T/C [16] 42.4% | viability, T/C [3] 91.8% | viability, T/C [17] 92% | viability, T/C [4] 75.8% | viability, T/C [18] 52% | viability, T/C [19] 56.6% | viability, T/C [20] 45.5% | viability, T/C [5] 76.6% | viability, T/C [21] 73.3% | viability, T/C [6] 81.6% | viability, T/C [22] 58% | viability, T/C [23] 50.3% | viability, T/C [24] 47.8% | viability, T/C [7] 65.9% | viability, T/C [25] 57.5% | viability, T/C [8] 55.5% | viability, T/C [26] 52.2% | viability, T/C [27] 51.1% | viability, T/C [28] 38.1% | viability, T/C [9] 56.3% | viability, T/C [29] 52.1% | viability, T/C [10] 55% | viability, T/C [30] 46.6% | viability, T/C [31] 50.4% | viability, T/C [32] 33.1% | viability, T/C [11] 48.8% | viability, T/C [33] 37.6% | viability, T/C [12] 47.1% | viability, T/C [34] 40.7% | viability, T/C [35] 43.5% | viability, T/C [36] 19.4%
5.75: pIC50 (second compound 3.16 µM)
< 5.00: pIC50 (second compound 0.1 µM)

CC(C)(O)C1CCC(Nc2ccc3ncc(-c4cccc(C(F)(F)F)c4)n3n2)CC1 (stereo not drawn) + Cc1[nH]c2ccc(F)cc2c1-c1nc2c3cccnc3c3ncccc3c2[nH]1
< 5.00: pIC50 (second compound 0.0316 µM) | pIC50 (second compound 0.1 µM) | pIC50 (second compound 0.316 µM) | pIC50 (second compound 1 µM) | pIC50 (second compound 3.16 µM) | pIC50 (second compound 10 µM)
inactive: viability, T/C [1] 98.3% | viability, T/C [13] 96.8% | viability, T/C [2] 97.9% | viability, T/C [14] 101% | viability, T/C [15] 102% | viability, T/C [16] 87.2% | viability, T/C [3] 120% | viability, T/C [17] 92.5% | viability, T/C [4] 92.3% | viability, T/C [18] 100% | viability, T/C [19] 96.4% | viability, T/C [20] 81.7% | viability, T/C [5] 98.5% | viability, T/C [21] 90.6% | viability, T/C [6] 103% | viability, T/C [22] 92.3% | viability, T/C [23] 103% | viability, T/C [24] 82.9% | viability, T/C [7] 90.7% | viability, T/C [25] 88.5% | viability, T/C [8] 98.5% | viability, T/C [26] 101% | viability, T/C [27] 106% | viability, T/C [28] 79.5% | viability, T/C [9] 89.3% | viability, T/C [29] 96.5% | viability, T/C [10] 94.1% | viability, T/C [30] 83.2% | viability, T/C [31] 95.2% | viability, T/C [32] 80.6% | viability, T/C [11] 77.7% | viability, T/C [33] 92% | viability, T/C [12] 91% | viability, T/C [34] 86.4% | viability, T/C [35] 84.9% | viability, T/C [36] 68.6%
